# Test results: US12344584B2, “KCNQ potentiators” (Eli Lilly and Company, priority 2019, dated 2025)
# System: peripheral axons
# Assay: Threshold tracking of peripheral nerve excitability in anesthetized rats
# Type: in vivo
# Details: rat
# Protocol: Threshold Tracking to Measure the Effects of Example 1 at 3.10 and 30 mg/kg IP on Peripheral Nerve Excitability
# Threshold tracking is a non-invasive technique that allows measurement of the excitability properties of peripheral axons by providing information about their membrane potential and ion channel function.
# 16 male Wistar rats from Charles River, weighing between 307-446 g ware used. Animals are group housed with standard housing conditions (4 per cage, 07:00 h to 19:00 h light phase, constant temperature (21° C.) and humidity, and free access to food and water, as well as environmental enrichment).
# Rats are anesthetized with isoflurane (2-2.5%, O2 at 0.5 L/min) and then placed on their back on a heating pad to keep the tail temperature above 32° C. The placement of the ring electrodes are marked out and the marked sections of the tail are scraped with a blade to remove hair and the top layer of skin. The sites are cleaned with water and dried, allowing fora good conduction between the skin and the sticky electrodes.
# A sticky ring stimulating electrode (+ve anode) is wrapped around the foot. A second sticky ring stimulating electrode (−ve cathode) is wrapped 1.5 cm from the base of the tail. A needle recording electrode is placed just off center on the top of the tail, 6 cm distal to the stimulating cathode at the base of the tail. A needle reference electrode is placed just off center on the top of the tail, 2 cm distal to the recording electrode. A sticky ground electrode is wrapped around the tail 2 cm proximal from the recording electrode.
# • Start the Multitrack program (description below) and Spike. • Record 15 min of stable baseline • After the 15 min, dose with Example 1 or HEC • Take blood spot for PK at the following: • 10 min post dose • 20 min post dose • 30 min post dose • 40 min post dose • 45 min after IP (intraperitoneal) dosing with Example 1, dose XE-991 (XE-991 is a commercially available compound that blocks KCNQ potentiator effects in a formalin assay in vivo—see Y. Zheng, et al., “Activation of peripheral KCNQ channels relieves gout pain,” Pain, 156 (2015) 1025-1035; and R. Zaczek, et al., “Two New Potent Neurotransmitter Release Enhancers, 10,10-Bis(4-Pyridinylmethyl)-9(10H)-Anthracenone and 10,10-Bis(2-Fluoro-4-Pyridinylmethyl)-9(10H)-Anthracenone: Comparison to Linopirdine” The Journal of Pharmacology and Experimental Therapeutics, 285:724-730, 1998. • (XE-991 is only dosed after Example 1 at 30 mg/kg) • Take blood spot for PK at the following: • 10 min post dose (55 min post Example 1 administration) • 20 min post dose (65 min post Example 1 administration) • 30 min post dose (75 min post Example 1 administration) • 40 min post dose (85 min post Example 1 administration)
# In threshold tracking assay to measure the excitability properties of peripheral axons studies in rat, compound is administered by IP at 3, 10 or 30 mg/kg using 1% hydroxyethylcellulose: 0.25% polysorbate 80:0.05% antifoam:purified water (HEC) formulation. Dry blood spots (DBS) are collected around 10, 20, 30 and terminal 40 min post-dose. DBS samples are dried at RT for around 2 h. Brain samples are obtained at terminal time point and frozen until analysis. DBS samples are shipped and stored at RT.
smiles,measurement,setting,value
"CC(C)(C)[C@H](O)CNC(=O)NCc1ccnc(OCC(F)(F)F)c1 [Example 1, 1-[(2S)-2-hydroxy-3,3-dimethyl-butyl]-3-[[2-(2,2,2-trifluoroethoxy)-4-pyridyl]methyl]urea]",Threshold Tracking absolute threshold for 40% CMAP (±SEM),3 mg/kg (IP),121 (±10) % baseline
same,Threshold Tracking absolute threshold for 40% CMAP (±SEM),10 mg/kg (IP),140 (±8) % baseline
same,Threshold Tracking absolute threshold for 40% CMAP (±SEM),30 mg/kg (IP),160 (±18) % baseline
same,absolute threshold compared with vehicle,"30 mg/kg IP, Bonferroni multiple comparisons test",significantly increased absolute threshold
